Experimental data published in patent publication US20260284208A1, “SYSTEM” (Oxford University Innovation Limited, priority 2023, published 2026).

Tested on: library of 8,380 IKZF3 degrons (ZF-eGFP/mCherry reporter) in Jurkat cells
Assay: Pooled library screen (FACS, NGS, limma voom LogFC of positive vs negative read counts)
Format: cell-based, human
Experimental: A library of 8,380 IKZF3 degrons was cloned into pLVX-Sprout to create the eGFP/mCherry protein degradation reporter plasmid pool. A lentivirus pool was then generated using the Lenti-X lentiviral vector production method.
Jurkat cells were transduced at a multiplicity of infection of <0.3 with the lentivirus vector library in order to maximise the number of cells with a single integration. Transductions were carried out in 6 well TC-treated cell culture dishes (Falcon) with 3×10^6 cells per well. Cells were incubated for 2 days at 37° C. and 5% CO2 before the supernatant was removed and replaced with fresh media. 6 days post-transduction, mCherry+ cells were isolated via FACS using the FACS Aria Fusion (BD) in a buffer containing PBS (Gibco), 2 mM EDTA (Gibco), 25 mM HEPES (Sigma) and 1% BSA (Sigma). 8 days later, cells were treated with DMSO or a thalidomide analog for 18 hours at 37° C. and 5% CO2. mCherry+GFPlow and NOT(mCherry+GFPlow) cells were sorted by FACS using the FACS Aria Fusion (BD). DMSO treated cells were used to set the mCherry+GFPlow gate and dead cells were excluded from sorting by staining cells with 1 μg/mL DAPI (ThermoFisher). gDNA was isolated using the Maxwell RSC 48 (Promega). gDNA from cells that were unsorted and untreated were also isolated to determine the library representation on the day of compound treatment. Throughout the screen >600× coverage of the library was maintained. 3 biological replicates were carried out with a new transduction taking place each time.
A two-step PCR was used where the first PCR (PCR1) amplified the integrated degron sequence from gDNA and the second PCR (PCR2) added Illumina adaptors and barcodes to permit multiplexing. See Supp F for PCR1 and PCR2 primers. Q5 Hot Start High-Fidelity 2× Master Mix (New England Biolabs) was used for both PCRs. Sufficient gDNA was amplified in PCR1 in order to maintain >600× coverage and amplicons were purified using solid phase reversible immobilization (SPRI) beads (Beckman Coulter). Purified PCR1 products were analysed on the Tapestation 4200 (Agilent) to confirm purity prior to proceeding to PCR2. Sufficient PCR1 product was amplified in PCR2 in order to maintain >600× coverage and amplicons were run on a 2% agarose TAE gel. Target bands were excised and purified using the NucleoSpin Gel and PCR Clean-up Kit (Machery Nagel). Amplicons were analysed on the Tapestation 4200 and quantified using Qubit dsDNA HS kit (ThermoFisher). PCR products were pooled and sequenced as paired-reads on the NovaSeq (Illumina) using a SP2 200 cycles kit (Illumina).
Count distributions, percentage of read mapping, library coverage and replicate correlation per sample were assessed for QC purposes.
To carry out the library screen, we used the same plasmid construct as in our earlier flow cytometry assays, but pooling all 8,380 mutants together into one Jurkat population, ensuring a copy number of one plasmid per cell (FIG. 4B). […] These GFP-negative cells were then separated from the remaining GFP-positive population using fluorescence activated cell sorting (FACS). These two populations were then sequenced and the relative abundance of every mutant in both populations compared to provide a log FC value for each mutant sequence. This value indicated how frequently a sequence is observed in the GFP-negative population relative to the GFP-positive population, and therefore how effective a degron it is for that particular IMID compound.

CN1CCN(c2ccc3c(c2)C(=O)N(C2CCC(=O)NC2=O)C3=O)CC1 (centres unmarked) [B08, 2-(2,6-dioxopiperidin-3-yl)-5-(4-methylpiperazin-1-yl)isoindoline-1,3-dione]
B08_logFC (Degron-ID 115, SEQ ID NO 2354, 46F_47A_49E_50V_52G_53A_54S_55F_67L): 2.665 | B08_logFC (Degron-ID 312, SEQ ID NO 2356, 46F_47C_49E_50I_52G_53A_54P_55F_67L): 2.662 | B08_logFC (Degron-ID 313, SEQ ID NO 2359, 46F_47C_49E_50I_52G_53A_54Q_55F_67L): 2.659 | B08_logFC (Degron-ID 316, SEQ ID NO 2364, 46F_47C_49E_50I_52G_53A_54T_55F_67L): 2.641 | B08_logFC (Degron-ID 355, SEQ ID NO 2334, 46F_47C_49E_50V_52G_53A_54S_55F_67L): 2.718 | B08_logFC (Degron-ID 432, SEQ ID NO 2346, 46F_47C_49P_50I_52G_53A_54P_55F_67L): 2.683 | B08_logFC (Degron-ID 480, SEQ ID NO 2273, 46F_47D_49D_50I_52G_53A_54A_55F_67L): 2.887 | B08_logFC (Degron-ID 495, SEQ ID NO 2327, 46F_47D_49D_50I_52G_53A_54S_55F_67L): 2.748 | B08_logFC (Degron-ID 556, SEQ ID NO 2290, 46F_47D_49E_50I_52G_53A_54T_55F_67L): 2.821 | B08_logFC (Degron-ID 557, SEQ ID NO 2336, 46F_47D_49E_50I_52G_53A_54V_55F_67L): 2.714 | B08_logFC (Degron-ID 591, SEQ ID NO 2348, 46F_47D_49E_50V_52G_53A_54N_55F_67L): 2.678 | B08_logFC (Degron-ID 593, SEQ ID NO 2355, 46F_47D_49E_50V_52G_53A_54Q_55F_67L): 2.664 | B08_logFC (Degron-ID 600, SEQ ID NO 2284, 46F_47D_49N_50I_52G_53A_54A_55F_67L): 2.845 | B08_logFC (Degron-ID 825, SEQ ID NO 2282, 46F_47E_49E_50V_52G_53A_54G_55F_67L): 2.853 | B08_logFC (Degron-ID 852, SEQ ID NO 2326, 46F_47E_49N_50I_52G_53A_54P_55F_67L): 2.749 | B08_logFC (Degron-ID 966, SEQ ID NO 2283, 46F_47F_49D_50I_52G_53A_54H_55F_67L): 2.85 | B08_logFC (Degron-ID 1014, SEQ ID NO 2319, 46F_47F_49D_50V_52G_53A_54R_55F_67L): 2.759 | B08_logFC (Degron-ID 1079, SEQ ID NO 2329, 46F_47F_49E_50V_52G_53A_54Y_55F_67L): 2.743 | B08_logFC (Degron-ID 1091, SEQ ID NO 2265, 46F_47F_49N_50I_52G_53A_54N_55F_67L): 2.903 | B08_logFC (Degron-ID 1095, SEQ ID NO 2275, 46F_47F_49N_50I_52G_53A_54S_55F_67L): 2.882 | B08_logFC (Degron-ID 1096, SEQ ID NO 2340, 46F_47F_49N_50I_52G_53A_54T_55F_67L): 2.704 | B08_logFC (Degron-ID 1146, SEQ ID NO 2305, 46F_47F_49P_50I_52G_53A_54H_55F_67L): 2.792 | B08_logFC (Degron-ID 1147, SEQ ID NO 2343, 46F_47F_49P_50I_52G_53A_54I_55F_67L): 2.701 | B08_logFC (Degron-ID 1149, SEQ ID NO 2361, 46F_47F_49P_50I_52G_53A_54L_55F_67L): 2.65 | B08_logFC (Degron-ID 1154, SEQ ID NO 2333, 46F_47F_49P_50I_52G_53A_54R_55F_67L): 2.724 | B08_logFC (Degron-ID 1159, SEQ ID NO 2293, 46F_47F_49P_50I_52G_53A_54Y_55F_67L): 2.817 | B08_logFC (Degron-ID 1186, SEQ ID NO 2321, 46F_47F_49P_50V_52G_53A_54H_55F_67L): 2.754 | B08_logFC (Degron-ID 1192, SEQ ID NO 2303, 46F_47F_49P_50V_52G_53A_54P_55F_67L): 2.797 | B08_logFC (Degron-ID 1440, SEQ ID NO 2337, 46F_47H_49D_50I_52G_53A_54A_55F_67L): 2.712 | B08_logFC (Degron-ID 1541, SEQ ID NO 2267, 46F_47H_49E_50V_52G_53A_54C_55F_67L): 2.901 | B08_logFC (Degron-ID 1552, SEQ ID NO 2268, 46F_47H_49E_50V_52G_53A_54P_55F_67L): 2.901 | B08_logFC (Degron-ID 1572, SEQ ID NO 2307, 46F_47H_49N_50I_52G_53A_54P_55F_67L): 2.781 | B08_logFC (Degron-ID 1575, SEQ ID NO 2324, 46F_47H_49N_50I_52G_53A_54S_55F_67L): 2.75 | B08_logFC (Degron-ID 1635, SEQ ID NO 2315, 46F_47H_49P_50I_52G_53A_54S_55F_67L): 2.766 | B08_logFC (Degron-ID 1660, SEQ ID NO 2328, 46F_47H_49P_50V_52G_53A_54A_55F_67L): 2.746 | B08_logFC (Degron-ID 1673, SEQ ID NO 2281, 46F_47H_49P_50V_52G_53A_54Q_55F_67L): 2.855 | B08_logFC (Degron-ID 1812, SEQ ID NO 2277, 46F_47I_49N_50I_52G_53A_54P_55F_67L): 2.872 | B08_logFC (Degron-ID 2412, SEQ ID NO 2342, 46F_47M_49D_50I_52G_53A_54P_55F_67L): 2.702 | B08_logFC (Degron-ID 2832, SEQ ID NO 2294, 46F_47N_49P_50I_52G_53A_54P_55F_67L): 2.815 | B08_logFC (Degron-ID 2940, SEQ ID NO 2314, 46F_47Q_49E_50I_52G_53A_54A_55F_67L): 2.768 | B08_logFC (Degron-ID 2955, SEQ ID NO 2358, 46F_47Q_49E_50I_52G_53A_54S_55F_67L): 2.66 | B08_logFC (Degron-ID 2957, SEQ ID NO 2350, 46F_47Q_49E_50I_52G_53A_54V_55F_67L): 2.675 | B08_logFC (Degron-ID 2987, SEQ ID NO 2341, 46F_47Q_49E_50V_52G_53A_54I_55F_67L): 2.703 | B08_logFC (Degron-ID 3012, SEQ ID NO 2271, 46F_47Q_49N_50I_52G_53A_54P_55F_67L): 2.893 | B08_logFC (Degron-ID 3100, SEQ ID NO 2338, 46F_47Q_49P_50V_52G_53A_54A_55F_67L): 2.707 | B08_logFC (Degron-ID 3172, SEQ ID NO 2291, 46F_47R_49D_50V_52G_53A_54P_55F_67L): 2.82 | B08_logFC (Degron-ID 3252, SEQ ID NO 2349, 46F_47R_49N_50I_52G_53A_54P_55F_67L): 2.676 | B08_logFC (Degron-ID 3360, SEQ ID NO 2289, 46F_47S_49D_50I_52G_53A_54A_55F_67L): 2.823 | B08_logFC (Degron-ID 3421, SEQ ID NO 2287, 46F_47S_49E_50I_52G_53A_54C_55F_67L): 2.828 | B08_logFC (Degron-ID 3433, SEQ ID NO 2323, 46F_47S_49E_50I_52G_53A_54Q_55F_67L): 2.75
